Source: US20220218837A1, “DRUG CONJUGATE” (priority 2018, published 2022)

Legend:
[1] = tested on: SK-BR-3, JIMT-1, MDA-MB-468, A431, CaSki, HeLa, A2058; experiment: Control treatments, relative cell viability on all cell lines; type: cell-based, human; details: wide range of toxin concentrations, up to 100.000 pM
[2] = tested on: A431 cells (EGFR++/HER2+/-/CD71+)
HeLa cells (EGFR+/-) = experiment: Cell killing / cell viability, HeLa cells
[3] = tested on: HSP27 mRNA in A431 cells (EGFR++); experiment: HSP27 gene silencing in A431 cells; type: cell-based, human
Description: (§1) Cells were seeded in DMEM (PAN-Biotech GmbH) supplemented with 10% fetal bovine serum (PAN-Biotech GmbH) and 1% penicillin/streptomycin (PAN-Biotech GmbH), in a 96 well plate at 5,000 c/w in 100 μL/well and incubated overnight at 37° C. and 5% CO2. The next day samples were prepared in DMEM and cells were treated.
(§2) RNA isolation and Qper analysis was performed according to standard procedures and protocols.

[4] = tested on: HSP27 mRNA in A2058 cells (EGFR-); experiment: HSP27 gene silencing in A2058 cells; type: cell-based, human; details: titrated + fixed 4000 nM SO1861-EMCH, nM of HSP27BNA or of conjugate
Description: as §1, §2

saporin was tested, and the “influence on cell viability” value [1] was “do not or hardly have any influence on cell viability”.
In the case of CC(=O)OC1C(C)OC(OC2C(C)OC(OC(=O)[C@]34CCC(C)(C)CC3C3=CCC5[C@@]6(C)CC[C@H](OC7OC(C(=O)O)C(O)C(OC8OCC(O)C(O)C8O)C7OC7OC(CO)C(O)C(O)C7O)[C@@](C)(C=O)C6CC[C@@]5(C)[C@]3(C)C[C@H]4O)C(OC3OC(C)C(OC4OCC(O)C(OC5OC(CO)C(O)C(O)C5O)C4O)C(O)C3O)C2O)C(O)C1OC1OCC(O)C(O)C1O (some centres unmarked) [SO1861], the IC50 cell killing ([2]; substance alone, no partner) is reported as “strong cell viability reduction”, the IC50 cell killing (A2058 cells (EGFR-); substance alone, no partner) is reported as “strong cell viability reduction” and the “IC50 cell viability (general toxicity)” value (HeLa cells (EGFR+/-); substance alone, in absence of EGFdianthin) is reported as “strong cell viability reduction”.
Compound “HSP27BNA: antisense BNA oligo targeting HSP27 mRNA, sequence 5′-GGCacagccagtgGCG-3′ (antisense GGCACAGCCAGTGGCG; BNA modifications)” has an IC50 ([3]; titrated + fixed 28.6 nM or 77 nM cetuximab-(Cys-L-SO1861)^3.9) of 10 nM, an IC50 ([3]; titrated + fixed 4000 nM SO1861-EMCH, nM of HSP27BNA or of conjugate) of 10 nM and an IC50 [4] of 10 nM.
For CC(=O)OC1C(C)OC(OC2C(C)OC(OC(=O)[C@]34CCC(C)(C)CC3C3=CCC5[C@@]6(C)CC[C@H](OC7OC(C(=O)O)C(O)C(OC8OCC(O)C(O)C8O)C7OC7OC(CO)C(O)C(O)C7O)[C@@](C)(/C=N/NC(=O)CCCCCN7C(=O)C=CC7=O)C6CC[C@@]5(C)[C@]3(C)C[C@H]4O)C(OC3OC(C)C(OC4OCC(O)C(OC5OC(CO)C(O)C(O)C5O)C4O)C(O)C3O)C2O)C(O)C1OC1OCC(O)C(O)C1O (some centres unmarked) [SO1861-EMCH], the “concentration above which general toxicity is seen without EGFdianthin” value ([2]; single compound) was greater than 25.000 nM, the “concentration above which general toxicity is seen without EGFdianthin” value (A2058 cells (EGFR-); single compound) was greater than 25.000 nM and the “IC50 cell viability reduction” value (A2058 cells (EGFR-); titrated + fixed […] EGFdianthin) was “not affected at all”. For the same compound, the “concentration above which general toxicity is seen without EGFdianthin” value (HeLa cells (EGFR+/-); single compound) was greater than 25.000 nM.
